Results as given in ChEMBL document CHEMBL1201862, “PubChem BioAssay data set” (2004).
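Tested at 5 concentrations; 48 h exposure; 96-well plates; endpoints linearly interpolated, else capped at highest concentration. The concentration for 50% growth inhibition is given as GI50.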 Activity calls are given as the source filed them. Rule as the data show it: active = GI50 up to about 1.1 µM and inactive = higher.

Columns and labels:
Test in all cases: NCI tumour cell line growth inhibition, 48 h
786-0 = tested on: 786-0
A498 = tested on: A498
A549 = tested on: A549
ACHN = tested on: ACHN
BT-549 = tested on: BT-549
CAKI-1 = tested on: CAKI-1
CCRF-CEM = tested on: CCRF-CEM
COLO 205 = tested on: COLO 205
DU-145 = tested on: DU-145
EKVX = tested on: EKVX
HCC 2998 = tested on: HCC 2998
HCT-116 = tested on: HCT-116
HCT-15 = tested on: HCT-15
HL-60 = tested on: HL-60
HOP-62 = tested on: HOP-62
HOP-92 = tested on: HOP-92
HT-29 = tested on: HT-29
Hs-578T = tested on: Hs-578T
IGROV-1 = tested on: IGROV-1
K562 = tested on: K562
KM12 = tested on: KM12
LOX IMVI = tested on: LOX IMVI
M14 = tested on: M14
MCF7 = tested on: MCF7
MDA-MB-231 = tested on: MDA-MB-231
MDA-MB-435 = tested on: MDA-MB-435
MDA-N = tested on: MDA-N
MOLT-4 = tested on: MOLT-4
Malme-3M = tested on: Malme-3M
NCI-H226 = tested on: NCI-H226
NCI-H23 = tested on: NCI-H23
NCI-H460 = tested on: NCI-H460
NCI-H522 = tested on: NCI-H522
NCI/ADR-RES = tested on: NCI/ADR-RES
OVCAR-3 = tested on: OVCAR-3
OVCAR-4 = tested on: OVCAR-4
OVCAR-5 = tested on: OVCAR-5
OVCAR-8 = tested on: OVCAR-8
PC-3 = tested on: PC-3
RPMI-8226 = tested on: RPMI-8226
RXF 393 = tested on: RXF 393
SF-268 = tested on: SF-268
SF-295 = tested on: SF-295
SF-539 = tested on: SF-539
SK-MEL-2 = tested on: SK-MEL-2
SK-MEL-5 = tested on: SK-MEL-5
SK-OV-3 = tested on: SK-OV-3
SN12C = tested on: SN12C
SNB-19 = tested on: SNB-19
SNB-75 = tested on: SNB-75
SR = tested on: SR
SW-620 = tested on: SW-620
T47D = tested on: T47D
TK-10 = tested on: TK-10
U-251 = tested on: U-251
UACC-257 = tested on: UACC-257
UACC-62 = tested on: UACC-62
UO-31 = tested on: UO-31
SK-MEL-28 = tested on: SK-MEL-28

Measured: GI50

Nc1ccn(C2CCC(CO)O2)c(=S)n1 (configuration not stated)
inactive: 786-0 > 100 µM | A498 > 100 µM | A549 > 100 µM | ACHN > 100 µM | BT-549 > 100 µM | CAKI-1 > 100 µM | CCRF-CEM > 100 µM | COLO 205 > 100 µM | DU-145 > 100 µM | EKVX > 100 µM | HCC 2998 > 100 µM | HCT-116 > 100 µM | HL-60 > 100 µM | HOP-62 > 100 µM | HOP-92 > 100 µM | HT-29 > 100 µM | Hs-578T > 100 µM | IGROV-1 > 100 µM | K562 > 100 µM | KM12 > 100 µM | LOX IMVI > 100 µM | M14 > 100 µM | MCF7 > 100 µM | MDA-MB-231 > 100 µM | MDA-MB-435 > 100 µM | MDA-N > 100 µM | MOLT-4 > 100 µM | Malme-3M > 100 µM | NCI-H226 > 100 µM | NCI-H23 > 100 µM | NCI-H460 > 100 µM | NCI-H522 > 100 µM | NCI/ADR-RES > 100 µM | OVCAR-3 > 100 µM | OVCAR-4 > 10 µM | OVCAR-5 > 100 µM | OVCAR-8 > 100 µM | PC-3 > 100 µM | RPMI-8226 35.8 µM | RXF 393 > 100 µM | SF-268 > 100 µM | SF-295 > 100 µM | SF-539 > 100 µM | SK-MEL-2 > 100 µM | SK-MEL-5 > 100 µM | SK-OV-3 > 100 µM | SN12C > 100 µM | SNB-19 > 100 µM | SNB-75 89.5 µM | SR > 100 µM | SW-620 > 100 µM | T47D > 100 µM | TK-10 > 100 µM | U-251 > 100 µM | UACC-257 > 100 µM | UACC-62 > 100 µM | UO-31 > 100 µM
> 100 µM: HCT-15

N[C@H]1CCCC[C@@H]1N1C(=O)c2ccccc2C1(O)c1ccc(Cl)cc1 (some centres not stated)
13.4 µM: HCT-15
inactive: 786-0 12.6 µM | A498 13.7 µM | A549 12.2 µM | ACHN 13.7 µM | BT-549 15 µM | CAKI-1 4.4 µM | CCRF-CEM 2.94 µM | COLO 205 3.41 µM | DU-145 13.2 µM | EKVX 15.3 µM | HCC 2998 1.86 µM | HCT-116 9.79 µM | HL-60 2.41 µM | HOP-62 14.5 µM | HOP-92 10.3 µM | HT-29 4.75 µM | Hs-578T 17 µM | IGROV-1 12.6 µM | K562 3.19 µM | KM12 2.11 µM | LOX IMVI 9.38 µM | M14 9.44 µM | MCF7 12.3 µM | MDA-MB-231 12.9 µM | MDA-MB-435 6.5 µM | MDA-N 11.8 µM | MOLT-4 5.79 µM | Malme-3M 14 µM | NCI-H226 15.9 µM | NCI-H23 14.9 µM | NCI-H460 11.2 µM | NCI-H522 13.8 µM | NCI/ADR-RES 12.7 µM | OVCAR-3 8.73 µM | OVCAR-4 11.2 µM | OVCAR-5 15.1 µM | OVCAR-8 15.4 µM | PC-3 11.4 µM | RPMI-8226 2.61 µM | RXF 393 6.07 µM | SF-268 12.4 µM | SF-295 16 µM | SF-539 10.4 µM | SK-MEL-28 3.78 µM | SK-MEL-2 15 µM | SK-MEL-5 10.5 µM | SK-OV-3 15.7 µM | SN12C 13.7 µM | SNB-19 14 µM | SNB-75 1.31 µM | SR 13.9 µM | SW-620 6.3 µM | T47D 4.99 µM | TK-10 12.9 µM | U-251 12.6 µM | UACC-257 4.15 µM | UACC-62 13 µM | UO-31 11.6 µM
